According to patent US20090202660A1, “Agents and Methods for Osteogenic Oxysterols Inhibition of Oxidative Stress on Osteogenic Cellular Differentiation” (The Regents of the University of California, priority 2005, published 2009):

Legend:
[1] = tested on: osteocalcin mRNA; test: Northern blotting for osteocalcin mRNA in M2 cells; assay type: cell-based, mouse; conditions: M2 cells in osteogenic medium, up to 14 days
Procedure: RNA isolation and Northern blot analysis—Following treatment of cells under appropriate experimental conditions, total RNA was isolated using the RNA isolation kit from Stratagene (La Jolla, Calif., U.S.A.). Total RNA ([…]) was run on a 1% agarose/formaldehyde gel and transferred to Duralon-UV membranes (Strategene, Calif., U.S.A.) and cross-linked with UV light. The membranes were hybridized overnight at 60 degree C. with ^32P-labeled mouse osteocalcin cDNA probe, mouse lipoprotein lipase (LPL), mouse adipocyte protein 2 (aP2) PCR-generated probes, human 28S or 18S rRNA probes obtained from Geneka Biotechnology (Montreal, Quebec, Canada) and Maxim Biotech (San Francisco, Calif., U.S.A.), respectively. The PCR products were generated using primer sets synthesized by Invitrogen (Carlsbad, Calif., U.S.A.) with the following specifications: mouse aP2 gene (accession no. M13261); sense (75-95) 5′-[…]-3′, antisense (362-383) 5′-[…]-3′, generating a PCR product of 309 base pairs. Mouse LPL (accession no. XM—134193); sense (1038-1058) 5′-[…]-3′, antisense (1816-1836) 5′-[…]-3′, generating a PCR product of 799 base pairs. […] Following hybridization, the blots were washed twice at room temperature with 2×SSC+0.1% SDS, and then twice at 60 degree C. with 0.5×SSC+0.1% SDS, and exposed to X-ray film. The extent of gene induction was determined by densitometry.
After 4 and 8 days, total RNA from duplicate samples was isolated and analyzed for osteocalcin (Osc) and 28S rRNA expression by Northern blotting as described. FIG. 3E is a radiogram of Northern blotting for osteocalcin mRNA in M2 cells exposed to a control or combination of oxysterols for 4 or 8 days. FIG. 3F is a bar graph depicting the relative demsometric units of osteocalcin mRNA in M2 cells exposed to a control or combination of oxysterols for 4 or 8 days. Data from densitometric analysis of the Northern blot is shown in (F) as the average of duplicate samples, normalized to 28S rRNA.
RNA Isolation and Northern Blot Analysis—Total RNA was isolated using the RNA isolation kit from Stratagene (La Jolla, Calif., USA). Northern blotting and analysis of osteocalcin mRNA and 18S rRNA expression was performed as previously described (23).

[2] = tested on: M2 cells; test: Troglitazone-induced adipogenesis, oil Red O staining and adipocyte count; assay type: cell-based, mouse; conditions: troglitazone 10 μM, oxysterols 10 μM, 8-10 days
Procedure: (§1) Von Kossa and oil red O staining—Matrix mineralization in cell monolayers was detected by silver nitrate staining as previously described. Oil red O staining for detection of adipocytes was performed as previously described.
Test 1: M2 cells at 90% confluence were treated with vehicle (C), PPAR-γ activator, troglitazone 10 uM (Tro), alone or in combination with 10 μM oxysterols 20S-, 22R-, or 25S-hydroxycholesterol. After 8 days, adipocytes were identified by oil Red 0 staining and quantified by counting under a phase contrast microscope. FIG. 6A is a bar graph depicting the effect of oxysterols on reducing adipogenesis of MSC.
Test 2: (A) M2 cells at confluence were treated in RPMI containing 10% FBS with control vehicle or 10 μM troglitazone (Tro) in the absence or presence of 10 μM 20S or 22S oxysterols. After 10 days, adipocytes were visualized by oil Red O staining and quantified by light microscopy, shown in (B). […] (C) M2 cells were treated at confluence with 10 μM Tro, alone or in combination with 10 μM 20S oxysterol. After 10 days, total RNA was isolated and analyzed for lipoprotein lipase (LPL), adipocyte P2 gene (aP2) or 18S rRNA expression by Northern blotting as described (Ref). Data from densitometric analysis of the Northern blot is shown in (D) as the average of duplicate samples, normalized to 18S rRNA.

[3] = tested on: M2-10B4 marrow stromal cells; test: Colorimetric alkaline phosphatase (ALP) activity assay on whole cell extracts
Procedure: Alkaline phosphatase activity assay: Colorimetric alkaline phosphatase (ALP) activity assay on whole cell extracts was performed as previously described.
Test 1: M2 cells at confluence were treated with control vehicle (C), or 10 µM oxysterols, in an osteogenic medium consisting of RPMI 1640 to which 10% fetal bovine serum (FBS), 50 µg/ml ascorbate and 3 mM beta-glycerophosphate (□GP) were added. After 3 days of incubation, alkaline phosphatase (ALP) activity was determined in cell homogenates by a colorimetric assay.
M2 cells at confluence were treated in osteogenic medium with control vehicle (C) or a combination of 22R and 20S oxysterols, at the indicated concentrations. ALP activity was measured after 3 days as described above.
Test 2: M2 cells were grown in RPMI medium containing 10% fetal bovine serum (FBS). At confluence, the cells were treated in RPMI containing 5% FBS plus ascorbate at 50 μg/ml and β-glycerophosphate at 3 mM to induce osteoblastic differentiation. Adipogenic differentiation was induced by treating the cells in growth medium plus 10˜M troglitazone. A vehicle (C) or oxysterol treatment was applied to cells in a variety of doses (in μM): 20S-Hydroxycholesterol, 25-Hydroxycholesterol, 22R-Hydroxycholesterol; 22S-Hydroxycholesterol; 7-ketocholesterol. Cells were always treated at 90% confluence. After 4 days, alkaline phosphatase activity was determined in whole cell lysates and normalized to protein. Alternatively, MSC cultures were prepared and treated with oxysterols as described above. Cells were treated at 90% confluence with the combination of 22R-Hydroxycholesterol and 20S-Hydroxycholesterol, each at 5 μM, for 4 to 96 hours. The oxysterols where removed and fresh media without oxysterols was added for a total duration of 96 hours. Alkaline phosphatase activity was measured in whole cell extracts and normalized to protein.
Cells were treated with the oxysterols (5 μM) for 4 days after which they were collected and analyzed by colorimetric assay for alkaline phosphatase activity. Results from a representative experiment are shown as the average of quadruplicate determination ±SD.

[4] = tested on: M2-10B4 marrow stromal cells; test: Matrix mineralization (45Ca incorporation assay, von Kossa staining); assay type: cell-based, mouse; conditions: M2 cells in osteogenic medium, 10-14 days
Procedure: as §1
^45Ca incorporation assay—Matrix mineralization in cell monolayers was quantified using the ^45Ca incorporation assay as previously described.
After 14 days, mineralization was identified by a von Kossa staining, which appears black. FIG. 3C is a depiction of von Kossa staining of M2 cells exposed to various conditions. […]

[5] = tested on: ERK1 and ERK2; test: Western blot for native and phosphorylated ERK in M2 cells; assay type: cell-based, mouse; conditions: 5 μM, 1, 4 or 8 hours
Procedure: Western blot analysis—After treatments, cells were lysed in lysis buffer, protein concentrations determined using the Bio-Rad protein assay (Hercules, Calif. U.S.A.), and SDS-PAGE performed as previously described. Probing for native and phosphorylated ERKs was performed as previously reported.
(A) M2 cells at confluence were pretreated for four hours with RPMI containing 1% FBS, followed by treatment with control vehicle or 5 μM 20S oxysterol for 1, 4, or 8 hours. Next total cell extracts were prepared and analyzed for levels of native or phosphorylated ERK (pERK) using specific antibodies as previously described. Data from a representative of four experiments are shown, each treatment shown in duplicate samples. (B) M2 cells at confluence were pretreated for 2 hours with control vehicle (C) or 20 μM PD98059 (PD) in osteogenic medium as previously described. Next, a combination of 22R and 20S oxysterols (RS, 5 μM each) were added to appropriate wells as indicated. After 10 days of incubation, matrix mineralization was quantified by the ^45Ca incorporation assay as previously described. […] (C) M2 cells at confluence were pretreated for 2 hours with 20 µM PD98059 (PD) in RPMI containing 5% FBS. […] After 10 days, adipocytes were visualized by oil Red O staining and quantified by light microscopy as previously described. […]

[6] = tested on: lipoprotein lipase (LPL) and adipocyte P2 gene (aP2); test: Northern blotting for adipogenic genes in M2 cells; assay type: cell-based, mouse; conditions: 10 μM Tro with 10 μM 20S, 10 days
Procedure: RNA isolation and Northern blot analysis—Following treatment of cells under appropriate experimental conditions, total RNA was isolated using the RNA isolation kit from Stratagene (La Jolla, Calif., U.S.A.). Total RNA ([…]) was run on a 1% agarose/formaldehyde gel and transferred to Duralon-UV membranes (Strategene, Calif., U.S.A.) and cross-linked with UV light. The membranes were hybridized overnight at 60 degree C. with ^32P-labeled mouse osteocalcin cDNA probe, mouse lipoprotein lipase (LPL), mouse adipocyte protein 2 (aP2) PCR-generated probes, human 28S or 18S rRNA probes obtained from Geneka Biotechnology (Montreal, Quebec, Canada) and Maxim Biotech (San Francisco, Calif., U.S.A.), respectively. […] The extent of gene induction was determined by densitometry.
Test 2: (A) M2 cells at confluence were treated in RPMI containing 10% FBS with control vehicle or 10 μM troglitazone (Tro) in the absence or presence of 10 μM 20S or 22S oxysterols. After 10 days, adipocytes were visualized by oil Red O staining and quantified by light microscopy, shown in (B). […] After 10 days, total RNA was isolated and analyzed for lipoprotein lipase (LPL), adipocyte P2 gene (aP2) or 18S rRNA expression by Northern blotting as described (Ref). […]

For `CC(C)CCC[C@](C)(O)[C@H]1CC[C@H]2[C@@H]3CC=C4C[C@@H](O)CC[C@]4(C)[C@H]3CC[C@@]21C` [20S-hydroxycholesterol], the osteocalcin gene expression [1] was “unable to induce”, the inhibition of adipogenesis [2] was “inhibited adipogenesis” and the “alkaline phosphatase activity (induction)” value ([3]; M2 cells in osteogenic medium, oxysterols 0.5-10 μM, 3-4 days) was “induced alkaline phosphatase activity”. The alkaline phosphatase activity ([3]; M2 cells, ligands used at 10 μM, control 18±2, ±SD) was 140±12 activity units/mg protein, the mineralization [4] was “unable to induce” and the “activation of ERK1 and ERK2” value [5] was “sustained activation”. The “expression of the adipogenic genes LPL and aP2” value [6] was “inhibition of the expression”.
